From patent US4767624A, “Decubital remedy” (priority 1985, dated 1988)
Where two headings read alike, the source gives them in different places.

How the values were obtained:
[1] = system: skin; test: Primary cutaneous irritation; type: in vivo
[2] = system: skin; test: Cumulative irritation; type: in vivo; conditions: 1% in squalane
[3] = Blepharo-irritation; type: in vivo; conditions: 1% in squalane
[4] = Phototoxicity; type: in vivo; conditions: 1% and 10% in squalane
[5] = Challenge (Adjuvante & patch method); type: in vivo; conditions: induction 5% acetone
Description: Challenge Induction: 5% acetone
(Adjuvante & patch method)

[6] = Optical challenge (Adjuvante & strip method); type: in vivo; conditions: induction 10% acetone
Description: |(Adjuvante & strip method)

[7] = system: skin; test: Patch test; type: in vivo; conditions: 1% in squalane
[8] = system: Wistar rats; test: Subacute oral toxicity, rats; type: in vivo; conditions: oral, 40, 200 and 1,000 mg/kg/day, 5 weeks
Experimental: (§1) Ubidecarenone was continuously and orally administered to male and female Wistar rats at doses of 40, 200 and 1,000 mg/kg/day for 5 weeks and to male and female rabbits at doses of 60 and 600 mg/kg/day for 23 days.

[9] = system: rabbits; test: Subacute oral toxicity, rabbits; type: in vivo; conditions: 60 and 600 mg/kg/day, 23 days
Experimental: as §1

[10] = Stability upon cutaneous administration; type: physicochemical
[11] = cited from earlier work
[12] = system: radiation dermatitis or radiation ulcers; conditions: previous trial use, publications (1) and (2); cited from earlier work
[13] = system: heart muscle; conditions: ischemic state; cited from earlier work

Compound: COC1=C(OC)C(=O)C(C/C=C(\C)CC/C=C(\C)CC/C=C(\C)CC/C=C(\C)CC/C=C(\C)CC/C=C(\C)CC/C=C(\C)CC/C=C(\C)CC/C=C(\C)CCC=C(C)C)=C(C)C1=O [Ubidecarenone]
- Primary cutaneous irritation ([1]; 1% in squalane): 0.1
- Primary cutaneous irritation, conclusion ([1]; 1% in squalane): low skin irritation
- irritation to the skin ([1]; cutaneous administration, summary of Table 1): low irritation to the skin
- Cumulative irritation [2]: 0.3
- Cumulative irritation, conclusion [2]: low skin irritation
- Blepharo-irritation, conclusion [3]: low blepharo-irritation
- Phototoxicity, conclusion [4]: low phototoxicity
- Challenge ([5]; 1% in acetone): 0/10
- Challenge, conclusion ([5]; 5% and 1% in acetone): low challenge
- Challenge ([5]; 5% in acetone): 0/10
- Optical challenge ([6]; 0.5% in acetone): 0/5
- Optical challenge, conclusion ([6]; 0.5-10% in acetone): low optical challenge
- Optical challenge ([6]; 1% in acetone): 0/5
- Optical challenge ([6]; 2% in acetone): 0/5
- Optical challenge ([6]; 5% in acetone): 0/5
- Optical challenge ([6]; 10% in acetone): 0/5
- Patch test [7]: 0/54
- Patch test, conclusion [7]: low skin irritation
- difference from controls in general conditions, blood test, urine test and morphological observation [8]: Neither rats nor rabbits developed any difference compared with their respective controls
- difference from controls in general conditions, blood test, urine test and morphological observation [9]: Neither rats nor rabbits developed any difference compared with their respective controls
- stability upon cutaneous administration [10]: good stability
- solubility ([11]; methanol): scarcely soluble
- solubility ([11]; oil): oil-soluble
- solubility ([11]; water): scarcely soluble
- effectiveness in radiation dermatitis or radiation ulcers [12]: superb effectiveness
- damage of ischemic cardiac muscular tissue [13]: reduce the damage
- percent oxygen utilization in heart muscle [13]: improve the percent oxygen utilization in heart muscle
